{"source": "patent US20210113524A1", "about": "“METHODS OF TREATING MYELOPROLIFERATIVE DISORDERS” (The Henry M. Jackson Foundation for the Advancement of …, priority 2018, published 2021)", "key": {"Gata1^low mice [1]": {"tested_on": "Gata1^low mice", "test": "Bone marrow histology and myelofibrosis (reticulin) scoring in Gata1^low mice", "format": "in vivo, mouse", "experimental": "(§1) All animal handling procedures were performed in compliance with guidelines from the National Research Council for the ethical handling of laboratory animals and were approved by the Uniformed Services University of the Health Sciences Institutional Animal Care and Use Committee. Male and female Gata1^low and wild type CD1 mice were purchased from Jackson Laboratories (Bar Harbor, Me.). Quantitative PCR confirmed low expression of Gata1. The mice were crossed to a CD1 background to establish a line of homozygous mutant mice. Mice were kept in a barrier facility for animals accredited by the Association for Assessment and Accreditation of Laboratory Animal Care International. Mice were housed in groups of four. Animal rooms were maintained at 21±2° C., 50%±10% humidity, and 12-hour light/dark cycle with commercial, freely-available rodent ration (Harlan Teklad Rodent Diet 8604, Frederick, Md., USA).\n(§2) HEMATOL. 2010; 38: 270-81. […] 2005; 29: 30-6. Based on previously measured volumes of water consumed per day by the mice, the daily water consumption was determined to be a dose of […] [Davis et al., 2010]. Control animals received acidified water (vehicle) without captopril. Animals were euthanized at 13 months of age.\n(§3) Tissues were paraffin blocked and stained using standard methods for hematoxylin and eosin (H&E), Masson's trichrome, and Gomori's reticulin stain by Histoserve (Germantown, Md.). Stained slides were evaluated by a pathologist who was blinded to the identity of the treatment groups and using a published system for scoring myelofibrosis [Kvasnicka, H. M., Problems and pitfalls in grading of bone marrow fibrosis, collagen deposition and osteosclerosis—a consensus-based study, HISTOPATHOLOGY 2016; 68: 905-15]. Bone marrow sections were digitally scanned using the Zeiss Axioscan, and images were produced with Zen Lite software (Carl Zeiss, USA).\nTo determine the efficacy of captopril in reversing MF, morphologic and phenotypic changes in the Gata1^low mouse model were evaluated. […]"}, "Gata1^low mice [2]": {"tested_on": "Gata1^low mice", "test": "Spleen histology and spleen weight in Gata1^low mice", "format": "in vivo, mouse", "experimental": "as §1, §2, §3\nLevels of megakaryocytes and extramedullary hematopoiesis were compared in the spleens of wild-type, untreated Gata1^low, and captopril-treated Gata1^low mice. […]"}, "Gata1^low mice [3]": {"tested_on": "Gata1^low mice", "test": "Peripheral complete blood counts with differentials in Gata1^low mice", "format": "in vivo, mouse", "conditions": "72 mg/kg per day captopril in drinking water from 10 to 12 months, euthanized at 13.5 months", "from_the_text": "HEMATOL. […] Control animals received acidified water (vehicle) without captopril.\nSeparate mice were used for each point (n=5-6 per group).\nPeripheral blood counts were studied in captopril-treated and untreated Gata1^low mice and their wild-type littermates. […] Complete blood cell counts with differentials were obtained."}, "[4]": {"tested_on": "mice exposed to total body radiation", "conditions": "mice exposed to total body radiation (Davis et al. 2010); cited from earlier work"}, "Gata1^low mice [5]": {"tested_on": "Gata1^low mice", "test": "Flow cytometry of megakaryocytes in spleen of Gata1^low mice", "conditions": "captopril treatment, p<0.05"}, "Gata1^low mice [6]": {"tested_on": "Gata1^low mice", "test": "Flow cytometry of CD115-/CD41+ megakaryocytes in bone marrow of Gata1^low mice", "conditions": "72 mg/kg/day captopril from 10 to 12 months, euthanized at 13 months, untreated Gata1^low 1.45%, wild type 0.5%, p<0.05"}, "Gata1^low mice [7]": {"tested_on": "Gata1^low mice", "test": "qRT-PCR of CD41, CD61, Col1a, Col3a2 mRNA in femur bone marrow of Gata1^low mice", "conditions": "72 mg/kg/day captopril, vs untreated mice, p<0.05"}, "Gata1^low mice [8]": {"tested_on": "Gata1^low mice", "test": "qRT-PCR of CD41, CD61, Col1a, Col3a2 mRNA in spleen-derived cells of Gata1^low mice", "conditions": "captopril treated Gata1^low mice"}, "[9]": {"tested_on": "C57BL/6 mice exposed to 7.9 Gy total body 60Co irradiation", "test": "Serum growth factor and cytokine levels (MSD/ELISA) after 7.9 Gy total body irradiation", "conditions": "7.9 Gy TBI"}}}
{"smiles": "C[C@H](CS)C(=O)N1CCC[C@H]1C(=O)O", "note": "[captopril]", "values": [{"measurement": "megakaryocytic hyperplasia in bone marrow (histology)", "setting": "Gata1^low mice [1]; captopril for two months (10-12 months of age), evaluated at 13 months, untreated Gata1^low: moderate", "result": "only mild megakaryocytic hyperplasia"}, {"measurement": "averaged bone marrow reticulin score", "setting": "Gata1^low mice [1]; captopril for two months, score out of 3, untreated Gata1^low 1.8, wild type 0", "result": 0.5}, {"measurement": "severity of bone marrow fibrosis (histology)", "setting": "Gata1^low mice [1]; captopril in drinking water (79 mg/kg/day) from 10-12 months of age, evaluated at 13 months, vs untreated Gata1^low", "result": "reduced the severity off bone marrow fibrosis"}, {"measurement": "decrease in splenic weight", "setting": "Gata1^low mice [2]; captopril for 2 months, vs untreated Gata1^low mice, p<0.05", "result": "~2", "unit": "fold"}, {"measurement": "extramedullary hematopoiesis in spleen (histology)", "setting": "Gata1^low mice [2]; captopril for two months, untreated Gata1^low: significant", "result": "moderate amounts of extramedullary hematopoiesis"}, {"measurement": "atypical megakaryocytes in spleen (histology)", "setting": "Gata1^low mice [2]; captopril for two months, vs untreated Gata1^low", "result": "reduced numbers of atypical megakaryocytes"}, {"measurement": "platelet count", "setting": "Gata1^low mice [3]", "result": "did not ameliorate"}, {"measurement": "eosinophils", "setting": "Gata1^low mice [3]; vs untreated Gata1^low", "result": "normalized"}, {"measurement": "lymphocytes", "setting": "Gata1^low mice [3]; vs untreated Gata1^low", "result": "normalized"}, {"measurement": "neutrophils", "setting": "Gata1^low mice [3]; vs untreated Gata1^low", "result": "normalized"}, {"measurement": "white blood cells (WBC)", "setting": "Gata1^low mice [3]; vs untreated Gata1^low", "result": "normalized"}, {"measurement": "blood cell recovery (red blood cells, reticulocytes, platelets) and recovery of colony forming units (CFU-GM, CFU-M, total)", "setting": "[4]", "result": "improving blood cell recovery"}, {"measurement": "survival rates", "setting": "[4]", "result": "improved survival rates"}, {"measurement": "decrease in the frequency of megakaryocytes as a percentage of total live cells, spleen", "setting": "Gata1^low mice [5]", "result": "~2", "unit": "fold"}, {"measurement": "number of CD115-/CD41+ megakaryocytes in bone marrow", "setting": "Gata1^low mice [6]", "result": "0.6 % of total live cells"}, {"measurement": "decrease of CD41 marker (qRT-PCR), bone marrow", "setting": "Gata1^low mice [7]", "result": "approximately 3 fold"}, {"measurement": "decrease of CD61 marker (qRT-PCR), bone marrow", "setting": "Gata1^low mice [7]", "result": "~2", "unit": "fold"}, {"measurement": "decrease of Col1a expression, bone marrow", "setting": "Gata1^low mice [7]", "result": "approximately 15 fold"}, {"measurement": "decrease of Col3a2 expression, bone marrow", "setting": "Gata1^low mice [7]", "result": "approximately 4 fold"}, {"measurement": "Col3a2 expression (qPCR), spleen", "setting": "Gata1^low mice [8]", "result": "trend toward reduced Col3a2 expression, although this did not reach significance"}, {"measurement": "decrease of CD41 marker (qRT-PCR), spleen", "setting": "Gata1^low mice [8]; p<0.05", "result": "about 6 fold"}, {"measurement": "decrease of CD61 marker (qRT-PCR), spleen", "setting": "Gata1^low mice [8]; p<0.05", "result": "about 5 fold"}, {"measurement": "reduction in the level of Col1a expression (qPCR), spleen", "setting": "Gata1^low mice [8]; p<0.05", "result": "~4", "unit": "fold"}, {"measurement": "increase in serum EPO", "setting": "[9]; 4 days post-irradiation, captopril 13 mg/kg/day in drinking water, same with or without captopril", "result": "~10", "unit": "fold"}, {"measurement": "serum EPO level", "setting": "[9]; 7 days post-irradiation, captopril 13 mg/kg/day, radiation-plus-vehicle 8.66±0.9, mean±SEM", "result": "0.57 ± 0.7", "unit": "ng/mL"}, {"measurement": "serum EPO level", "setting": "[9]; 14 days post-irradiation, captopril 13 mg/kg/day, radiation-plus-vehicle 288±140, mean±SEM", "result": "140 ± 24", "unit": "ng/mL"}, {"measurement": "serum EPO level", "setting": "[9]; 21 days post-irradiation, captopril vs vehicle irradiated group", "result": "similarly elevated"}, {"measurement": "IL-6 levels post-irradiation", "setting": "[9]; any time points (3-30 days), captopril 13 mg/kg/day", "result": "did not significantly suppress"}, {"measurement": "serum EPO level", "setting": "[9]; by 30 days post-irradiation, captopril-treated animals", "result": "declined sharply"}, {"measurement": "radiation induced G-CSF", "setting": "[9]; days 7 and 14 post-irradiation, captopril 13 mg/kg/day from 48 hours post-irradiation for 14 days, p<0.05 vs vehicle", "result": "significantly suppressed"}, {"measurement": "radiation-induced SAA1 levels", "setting": "[9]; days 7 and 14 post-irradiation, delayed (48 hours) low-dose captopril 13 mg/kg/day, p<0.05 vs vehicle", "result": "significantly attenuated"}]}
